# Assay results: patent US20160002391A1, “POLYMERS, SUBSTRATES, METHODS FOR MAKING SUCH, AND DEVICES COMPRISING THE SAME” (AVERTICA, INC., priority 2013, published 2016)
# Where a name gives a salt, the structure may show the parent alone.
# Tested on: mushroom tyrosinase (polyphenol oxidase)
# Assay: Polymer production in enzymatic tyrosinase (polyphenol oxidase) reaction
# Type: biochemical
# Design: key: +++: Reacted within about 1 hour; ++: reacted within about 3 hours; +: reacted within about 24 hours; +/−: inconclusive results; −: no reaction
# Settings: approx. 50 mM potassium phosphate buffer pH 6.5, approx. 5 mM substrate, observed over 24 hour period
# Experimental: All reactions were carried out in approximately 50 mM potassium phosphate buffer, pH 6.5 with approximately 5 mM substrate and mushroom tyrosinase (polyphenol oxidase) Sigma T3824 in an amount of 100 to 10,000 units. Reaction volumes varied from 200 μl to 2 ml. In cases where substrates were not completely solubilized, then a saturated solution was used as the limit of solubility. In some cases, a solution of DMSO was used to increase solubility of the substrates. […] The reactions were observed over a 24 hour period for the production of polymers, and the presence and color of polymer and solution was recorded.
# The production of polymers in each reaction was visible as a precipitate in the well of a 96 well plate or in the reaction mixture on a glass slide.
row,Compound,Result (polymer production in tyrosinase reaction)
1,c1ccc2[nH]ccc2c1 [Indole],−
2,N[C@@H](Cc1ccc(O)cc1)C(=O)O [Tyrosine],++ (reacted within about 3 hours)
3,Cl.NCCc1ccc(O)cc1 [Tyramine HCl],+++ (Reacted within about 1 hour)
4,NCCc1ccc(O)cc1 [Tyramine],+++ (Reacted within about 1 hour)
5,CN[C@@H](Cc1ccc(O)cc1)C(=O)O [N-methyl tyrosine],++ (reacted within about 3 hours)
6,Oc1ccc2cc[nH]c2c1 [6 Hydroxyindole],++ (reacted within about 3 hours)
7,"Oc1ccc2cc(O)ccc2c1 [2,6 dihydroxnaphthalene]",+ (reacted within about 24 hours)
8,Oc1ccc2[nH]ccc2c1 [5-hydroxyindole],+++ (Reacted within about 1 hour)
9,Cl.NCCc1ccccc1 [Beta phenylethylamine HCL],+/−

# Same assay, conditions: as above; substrate (or marked component) dissolved in 20% DMSO
row,Compound,Result (polymer production in tyrosinase reaction)
1,"Oc1ccc(-c2cc(-c3ccc(O)cc3)cc(-c3ccc(O)cc3)c2)cc1 [1,3,5 Tris(4hydroxyphenyl)benzene]",+ (reacted within about 24 hours)
2,Oc1ccc2c(c1)[nH]c1ccccc12 [2 Hydroxy carbazole],−
3,CC1=NCCc2c1[nH]c1cc(O)ccc21 [Harmalol HCl dehydrate],−

# Tested on: mushroom tyrosinase (phenyl oxidase)
# Assay: Substituted substrates for phenol oxidases: polymer formation with mushroom tyrosinase
# Type: biochemical
# Settings: 5 mM potassium phosphate buffer, 200 Units tyrosinase, up to 3 hours
# Experimental: 6-hydroxyindole, 6-hydroxyindole-3-carboxaldehyde, 1,2-dihydroxybenzene (catechol), 2,3-dihydroxybenzaldehyde, and 3,4-dihydroxybenezaldehyde were used as substrates for phenol oxidases.
# 6-hydroxyindole, 6-hydroxyindole-3-carboxaldehyde, 1,2-dihydroxybenzene (catechol), 2,3-dihydroxybenzaldehyde, and 3,4-dihydroxybenezaldehyde were dissolved in water at a concentration of 0.03 g/ml. Ten microliters of each was diluted into 90 microliter of 5 mM potassium phosphate buffer and 2 μl of mushroom tyrosinase (phenyl oxidase, 200 Units) was added. The reactions were allowed to proceed for up to 3 hours. […] Buffer alone with no substrates were used as controls and were negative for polymer formation.
row,Compound,Polymer formation with mushroom tyrosinase
1,"Oc1ccccc1O [1,2-dihydroxybenzene (catechol), 1,2-dihydroxybenzene]",Polymers were formed
2,"O=Cc1ccc(O)c(O)c1 [3,4-dihydroxybenezaldehyde]",Polymers were formed
3,O=Cc1c[nH]c2cc(O)ccc12 [6-hydroxyindole-3-carboxaldehyde],Polymers were formed
4,Oc1ccc2cc[nH]c2c1 [6 Hydroxyindole],Polymers were formed
5,"O=Cc1cccc(O)c1O [2,3-dihydroxybenzaldehyde]",Polymers were formed
